Measurements published in the supplement of paper PMC10307832.

Assays:
Assay in all cases: relative viability (nuclei count vs DMSO), 5 days (fraction); higher = more cells survive
Metformin + Crizotinib = compound: CN(C)C(=N)NC(=N)N [Metformin] + C[C@@H](Oc1cc(-c2cnn(C3CCNCC3)c2)cnc1N)c1c(Cl)ccc(F)c1Cl [Crizotinib] (partner 1 µM)
Method in brief: (§1)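 Lung cancer cell lines in 1536-well plates got either a single drug or a fixed anchor-drug dose together with five library-drug doses (not always all listed) in √10 steps, by pin tool, on the day after seeding. Nuclei were counted after 5 days, and relative viability is the treated-to-vehicle ratio of nuclei counts. Values are medians of duplicate plates.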

Metformin + Linsitinib = compound: CN(C)C(=N)NC(=N)N [Metformin] + C[C@]1(O)C[C@@H](c2nc(-c3ccc4ccc(-c5ccccc5)nc4c3)c3c(N)nccn32)C1 [Linsitinib] (partner 1 µM)
Method in brief: as §1

Apatinib + Palbociclib = compound: N#CC1(c2ccc(NC(=O)c3cccnc3NCc3ccncc3)cc2)CCCC1 [Apatinib] + CC(=O)c1c(C)c2cnc(Nc3ccc(N4CCNCC4)cn3)nc2n(C2CCCC2)c1=O [Palbociclib] (partner 0.5 µM)
Method in brief: as §1

Apatinib + Decitabine = compound: N#CC1(c2ccc(NC(=O)c3cccnc3NCc3ccncc3)cc2)CCCC1 [Apatinib] + Nc1ncn([C@H]2C[C@H](O)[C@@H](CO)O2)c(=O)n1 [Decitabine] (partner 2 µM)
Method in brief: as §1

| Cell Line | relative viability (Metformin + Crizotinib; first compound 10 µM) | relative viability (Metformin + Crizotinib; first compound 31.62 µM) | relative viability (Metformin + Crizotinib; first compound 100 µM) | relative viability (Metformin + Crizotinib; first compound 316.23 µM) | relative viability (Metformin + Crizotinib; first compound 1000 µM) | relative viability (Metformin + Linsitinib; first compound 10 µM) | relative viability (Metformin + Linsitinib; first compound 31.62 µM) | relative viability (Metformin + Linsitinib; first compound 100 µM) | relative viability (Metformin + Linsitinib; first compound 316.23 µM) | relative viability (Metformin + Linsitinib; first compound 1000 µM) | relative viability (Apatinib + Palbociclib; first compound 0.08 µM) | relative viability (Apatinib + Palbociclib; first compound 0.253 µM) | relative viability (Apatinib + Palbociclib; first compound 0.8 µM) | relative viability (Apatinib + Palbociclib; first compound 2.53 µM) | relative viability (Apatinib + Palbociclib; first compound 8 µM) | relative viability (Apatinib + Decitabine; first compound 0.08 µM) | relative viability (Apatinib + Decitabine; first compound 0.253 µM) | relative viability (Apatinib + Decitabine; first compound 0.8 µM) | relative viability (Apatinib + Decitabine; first compound 2.53 µM) | relative viability (Apatinib + Decitabine; first compound 8 µM) |
| --- | --- | --- | --- | --- | --- | --- | --- | --- | --- | --- | --- | --- | --- | --- | --- | --- | --- | --- | --- | --- |
| NCI-H2347 | 0.545 | 0.763 | 0.85 | 0.566 | 0.675 | 0.753 | 0.89 | 0.973 | 0.862 | 0.943 | 0.469 | 0.407 | 0.452 | 0.384 | 0.392 | 0.666 | 0.592 | 0.67 | 0.674 | 0.804 |
| H3255 | 0.754 | 0.934 | 0.809 | 0.84 | 0.384 | 0.942 | 1.08 | 0.961 | 0.938 | 0.873 | 0.339 | 0.306 | 0.319 | 0.305 | 0.285 | 0.707 | 0.553 | 0.578 | 0.542 | 0.517 |
| LU99A | 0.47 | 0.52 | 0.443 | 0.503 | 0.481 | 0.493 | 0.491 | 0.466 | 0.377 | 0.514 | 0.505 | 0.489 | 0.383 | 0.339 | 0.328 | 1.01 | 1.01 | 0.843 | 0.895 | 0.774 |
| HCC-44 | 0.824 | 0.788 | 0.785 | 0.749 | 0.776 | 0.712 | 0.679 | 0.695 | 0.597 | 0.654 | 0.999 | 0.987 | 0.894 | 0.839 | 0.8 | 0.963 | 0.929 | 0.887 | 0.95 | 0.89 |
| EPLC-272H | 1.07 | 1.03 | 0.874 | 0.918 | 1.06 | 1.39 | 1.39 | 1.26 | 1.08 | 1.51 | 0.284 | 0.341 | 0.359 | 0.336 | 0.313 | 0.395 | 0.324 | 0.405 | 0.307 | 0.342 |
| EMC-BAC-2 | 0.731 | 0.8 | 0.828 | 0.702 | 0.805 | 0.795 | 0.812 | 0.799 | 0.783 | 0.853 | 0.518 | 0.536 | 0.506 | 0.449 | 0.412 |  | 0.967 | 0.925 | 0.954 | 1.01 |
| NCI-H1355 | 1.01 | 1.06 | 1.03 | 0.986 | 1.11 | 0.782 | 0.783 | 0.756 | 0.731 | 0.854 | 0.379 | 0.394 | 0.367 | 0.378 | 0.366 | 0.35 | 0.349 | 0.39 | 0.367 | 0.447 |
| RERF-LC-KJ | 0.802 | 0.739 | 0.718 | 0.424 | 0.74 | 0.835 | 0.769 | 0.857 | 0.768 | 0.829 | 1.11 | 1.1 | 0.467 | 1.05 | 0.984 | 0.755 | 0.7 | 0.637 | 0.66 | 0.746 |
| NCI-H661 |  | 0.848 | 0.843 | 0.885 | 0.8 | 0.761 | 0.966 | 0.812 | 0.767 | 0.677 | 0.388 | 0.405 | 0.417 | 0.417 | 0.356 | 0.615 | 0.543 | 0.542 | 0.581 | 0.599 |
| SK-LU-1 | 0.787 | 0.772 | 0.884 | 0.817 | 0.824 | 0.947 | 1.08 | 0.674 | 1.08 | 1.03 | 0.372 | 0.402 | 0.433 | 0.381 | 0.339 | 0.724 | 0.782 | 0.671 | 0.667 | 0.675 |
| HARA | 1.13 | 1.09 | 1.15 | 1.01 | 1.08 | 1.14 | 1.07 | 1.2 | 0.872 | 1.06 | 0.291 | 0.262 | 0.303 | 0.271 | 0.272 | 0.676 | 0.538 | 0.438 |  | 0.671 |
| NCI-H1792 |  | 0.956 | 1.13 | 0.971 | 0.98 |  | 0.742 | 0.803 | 0.632 | 0.664 | 0.662 | 0.651 | 0.577 | 0.633 | 0.622 | 0.596 | 0.55 | 0.544 | 0.591 | 0.609 |
| HCC-366 | 0.608 | 0.502 | 0.532 | 0.398 | 0.709 | 0.646 | 0.703 | 0.75 | 0.559 | 0.691 | 0.484 | 0.378 | 0.373 | 0.334 | 0.306 | 0.395 | 0.365 | 0.309 | 0.353 | 0.432 |
| HCC-827 |  | 0.87 | 0.903 | 0.849 | 0.888 |  | 0.89 | 0.945 | 0.883 | 0.973 | 0.444 | 0.444 | 0.402 | 0.391 | 0.357 | 0.345 | 0.335 | 0.363 | 0.322 | 0.327 |
| NCI-H2126 | 0.863 | 0.946 | 0.957 | 0.908 | 0.956 | 0.633 | 0.735 | 0.687 | 0.703 | 0.721 | 0.324 | 0.352 | 0.355 | 0.322 | 0.34 | 0.589 | 0.637 | 0.666 | 0.566 | 0.547 |
| ABC-1 |  | 1.3 | 0.869 | 0.447 | 0.29 |  | 0.675 | 0.971 | 0.307 | 0.325 |  | 1.02 | 0.663 | 0.531 | 0.583 |  | 1.04 | 1.19 | 1.21 | 0.895 |
| LK-2 | 0.228 | 0.214 | 0.234 | 0.176 | 0.245 | 0.906 | 0.996 | 0.948 | 0.694 | 0.81 | 0.762 | 0.481 | 0.758 | 0.484 | 0.356 | 0.299 | 0.298 | 0.273 | 0.21 | 0.273 |
| COR-L23 | 0.564 | 0.461 | 0.483 | 0.574 | 0.639 | 0.821 | 0.828 | 0.9 | 0.77 | 0.843 | 0.321 | 0.341 | 0.278 | 0.273 | 0.271 | 0.514 | 0.509 | 0.452 | 0.427 | 0.413 |
| NCI-H1915 |  | 0.985 | 0.918 | 0.889 | 0.96 |  | 1.22 | 1.15 | 1.14 | 1.11 | 0.549 | 0.524 | 0.555 | 0.5 | 0.475 | 0.296 | 0.266 | 0.265 | 0.339 | 0.388 |
| NCI-H23 | 0.574 | 0.692 | 0.693 | 0.548 | 0.811 | 0.701 | 0.623 | 0.705 | 0.675 | 0.763 | 0.561 | 0.57 | 0.575 | 0.409 | 0.424 | 0.32 | 0.333 | 0.304 | 0.332 | 0.475 |
| NCI-H1734 | 0.743 | 0.83 | 0.654 | 0.669 | 0.74 | 0.99 | 0.954 | 1.05 | 0.844 | 0.946 | 0.375 | 0.364 | 0.334 | 0.318 | 0.312 | 0.532 | 0.549 | 0.482 | 0.563 | 0.623 |
| NCI-H2405 | 0.815 | 0.93 | 0.97 | 0.89 | 0.854 | 0.845 | 0.92 | 0.981 | 0.882 | 0.436 | 0.528 | 0.569 | 0.546 | 0.513 | 0.479 | 0.83 | 0.854 | 0.711 | 0.712 | 0.776 |
| NCI-H727 | 0.886 | 0.886 | 1.04 | 0.811 | 0.993 | 0.289 | 0.342 | 0.304 | 0.298 | 0.35 | 0.731 |  | 0.642 | 0.653 | 0.714 | 0.89 |  | 0.973 | 0.985 | 0.729 |
| NCI-H2009 | 1.06 | 1.07 | 1.11 | 1.04 | 0.878 | 1.22 | 1.17 | 1.17 | 0.781 | 0.9 | 0.423 | 0.206 | 0.227 | 0.203 | 0.167 | 0.367 | 0.411 | 0.35 | 0.508 | 0.581 |
| NCI-H1666 | 1.26 | 1.03 | 1.15 | 1.09 | 1.2 | 0.863 | 1 | 0.962 | 0.703 | 1.09 | 0.675 | 0.638 | 0.655 | 0.629 | 0.626 | 0.756 | 0.727 | 0.692 | 0.737 | 0.612 |
| UMC-11 | 0.725 | 0.742 | 0.673 | 0.626 | 0.598 | 1.07 | 1.09 | 1.12 | 1.04 | 1.14 | 0.322 | 0.326 | 0.278 | 0.31 | 0.323 | 0.711 | 0.64 | 0.575 | 0.714 | 0.629 |
| NCI-H1755 | 0.677 | 0.792 | 0.744 | 0.756 | 0.753 | 0.842 | 0.84 | 0.871 | 0.843 | 0.914 | 0.462 | 0.464 | 0.434 | 0.404 | 0.422 | 0.712 | 0.701 | 0.644 | 0.91 | 0.837 |
